# Measured values taken from US20180296503A1 (priority 2014, published 2018).
# How the values were obtained:
# [1] = biological target: glutamate cysteine ligase (GCL, EC 6.3.2.2); conditions: nonallosteric competitive inhibition of GCL; cited from earlier work
# [2] = system: rd10^+/+ mice; experiment: Scotopic, photopic and low background photopic electroretinograms (ERGs) in rd10+/+ mice given drug in drinking water; type: in vivo; conditions: for mean peak scotopic ERG b-wave amplitude compared with controls: vs controls
# Description: Scotopic and photopic electroretinograms (ERGs) were recorded at P35. Scotopic, photopic and low background photopic ERGs were recorded at P50.
# [3] = system: rd10^+/+ mice; experiment: Cone density in PNA-stained retinal flat mounts of rd10+/+ mice at P50; type: in vivo; conditions: for cone cell density compared to NAC-treated mice: P50, four quadrants
# [4] = oral formulations; cited from earlier work
# [5] = humans; oral dose of 600 mg; cited from earlier work
# [6] = same oral dose or substantially lower dose than NAC, rd10+/+ mice
smiles,measurement,setting,value
"N[C@@H](CCC(=O)N[C@@H](CS)C(=O)NCC(=O)O)C(=O)O [GSH, c-L-glutamyl-L-cysteinyl-glycine]",Ki,[1],2300 µM
CC(=O)N[C@@H](CS)C(N)=O,protecting retinal function (FIGS. 1A to 1E),[2]; 7 mg/ml NACA vs 7 mg/ml NAC,better effects
same,protecting retinal function (FIGS. 3A to 3E),[2]; 7 mg/ml NACA vs 20 mg/ml NAC,better effects
same,mean peak scotopic ERG b-wave amplitude compared with 20 mg/ml NAC,"[2]; P35, 7 mg/ml NACA vs 20 mg/ml NAC",similar
same,"mean peak photopic b-wave amplitude, higher than in NAC-treated mice","[2]; P35, 7 mg/ml NACA vs 20 mg/ml NAC, p=0.024",41%
same,mean scotopic b-wave amplitudes compared with NAC-treated mice,"[2]; P50, 7 mg/ml NACA vs 20 mg/ml NAC, at 10 of 11 stimulus intensities",significantly greater
same,"mean photopic ERG b-wave amplitude, higher than in NAC-treated mice","[2]; P50, 7 mg/ml NACA vs 20 mg/ml NAC, at all 3 stimulus intensities, p=0.001",50%
same,mean peak scotopic ERG b-wave amplitude compared with controls,"[2]; P50, 7 mg/ml NACA",sustained higher amplitudes
same,preservation of cone cell function compared with NAC,[2]; [6],significantly greater preservation
same,protecting cone cell survival (FIGS. 2A to 2M),[3]; 7 mg/ml NACA vs 7 mg/ml NAC,better effects
same,protecting cone cell survival (FIGS. 4A to 4M),[3]; 7 mg/ml NACA vs 20 mg/ml NAC,better effect
same,cone cell density compared to NAC-treated mice,"[3]; 7 mg/ml NACA vs 7 mg/ml NAC, p<0.0001 by ANOVA with Dunnett's correction",significantly greater in 3 of 4 quadrants
same,cone cell density compared to NAC-treated mice,[3]; 7 mg/ml NACA vs 20 mg/ml NAC,significantly greater in 2 of 4 quadrants
same,preservation of cone survival compared with NAC,[3]; [6],significantly greater preservation
"CC(=O)N[C@@H](CS)C(=O)O [NAC, N-acetyl-L-cysteine]",systemic bioavailability,[4],< 10%
same,mean peak scotopic ERG b-wave amplitude compared with controls,"[2]; P50, 20 mg/ml NAC",sustained higher amplitudes
same,time after administration at which no NAC is detectable,[5],10 to 12 h
